From ChEMBL document CHEMBL3885861, “Open TG-GATES”

Species on record: Rattus norvegicus
Test: Open TG-GATES - Regimen: Single
Type: toxicity, organism-based, Sprague-Dawley
Parameters: regimen Single, gender Male, age 6 weeks
Conditions: in vivo, po, 1200 mg/kg, route gavage, dose level Middle; for APTT / Bas / Eos / Fbg / Hb / Ht / Lym / MCH / MCHC / MCV / Mono / Neu / PT / Plat / RBC / Ret / WBC: tissue Blood; for KIDNEY_L / KIDNEY_R / KIDNEY_TOTAL: tissue Kidney; for LIVER: tissue Liver; for A/G / ALP / ALT / AST / BUN / CRE / Ca / Cl / DBIL / GLC / IP / K / LDH / Na / PL / RALB / TBIL / TC / TG / TP / gamma-GTP: tissue Plasma

CCO [ALCOHOL]
TERMINAL_BW (3 h): 203.8 g | APTT (3 h): 18.7 s | Bas (3 h): 0% | Eos (3 h): 1% | Fbg (3 h): 200 mg/dL | Hb (3 h): 13.2 g/dL | Ht (3 h): 39.1% | Lym (3 h): 72% | MCH (3 h): 22.1 pg | MCHC (3 h): 33.7% | MCV (3 h): 65.5 fL | Mono (3 h): 5.6% | Neu (3 h): 21.6% | PT (3 h): 12.4 s | Plat (3 h): 108.6 x10_4/uL | RBC (3 h): 596.8 x10_4/ul | Ret (3 h): 8.1% | WBC (3 h): 95.6 x10_2/uL | KIDNEY_L (3 h): 0.9 g | KIDNEY_R (3 h): 1 g | KIDNEY_TOTAL (3 h): 1.9 g | LIVER (3 h): 9.2 g | A/G (3 h): 2.8 | ALP (3 h): 973.6 IU/L | ALT (3 h): 38 IU/L | AST (3 h): 69.8 IU/L | BUN (3 h): 9 mg/dL | CRE (3 h): 0.5 mg/dL | Ca (3 h): 10.7 mg/dL | Cl (3 h): 104.6 meq/L | DBIL (3 h): 0.016 mg/dL | GLC (3 h): 204.4 mg/dL | IP (3 h): 8.9 mg/dL | K (3 h): 4.5 meq/L | LDH (3 h): 121.2 IU/L | Na (3 h): 140 meq/L | PL (3 h): 138 mg/dL | RALB (3 h): 3.8 g/dL | TBIL (3 h): 0.4 mg/dL | TC (3 h): 74.8 mg/dL | TG (3 h): 60.8 mg/dL | TP (3 h): 5.2 g/dL | gamma-GTP (3 h): 1.2 IU/L | TERMINAL_BW (6 h): 203.8 g | APTT (6 h): 17.5 s | Bas (6 h): 0% | Eos (6 h): 1.2% | Fbg (6 h): 196.6 mg/dL | Hb (6 h): 13.3 g/dL | Ht (6 h): 39.9% | Lym (6 h): 67% | MCH (6 h): 21.7 pg | MCHC (6 h): 33.3% | MCV (6 h): 65 fL | Mono (6 h): 12% | Neu (6 h): 19.4% | PT (6 h): 12.2 s | Plat (6 h): 98.4 x10_4/uL | RBC (6 h): 615.4 x10_4/ul | Ret (6 h): 13.5% | WBC (6 h): 87.4 x10_2/uL | KIDNEY_L (6 h): 0.9 g | KIDNEY_R (6 h): 1 g | KIDNEY_TOTAL (6 h): 1.9 g | LIVER (6 h): 9.2 g | A/G (6 h): 2.4 | ALP (6 h): 827.2 IU/L | ALT (6 h): 36 IU/L | AST (6 h): 71 IU/L | BUN (6 h): 11.4 mg/dL | CRE (6 h): 0.5 mg/dL | Ca (6 h): 10.5 mg/dL | Cl (6 h): 105.2 meq/L | DBIL (6 h): 0.066 mg/dL | GLC (6 h): 203 mg/dL | IP (6 h): 10.3 mg/dL | K (6 h): 4.6 meq/L | LDH (6 h): 87 IU/L | Na (6 h): 140.8 meq/L | PL (6 h): 132.4 mg/dL | RALB (6 h): 3.8 g/dL | TBIL (6 h): 0.4 mg/dL | TC (6 h): 69.2 mg/dL | TG (6 h): 59.4 mg/dL | TP (6 h): 5.3 g/dL | gamma-GTP (6 h): 1.8 IU/L | TERMINAL_BW (9 h): 201.5 g | APTT (9 h): 17.2 s | Bas (9 h): 0% | Eos (9 h): 1.6% | Fbg (9 h): 204.2 mg/dL | Hb (9 h): 13.5 g/dL | Ht (9 h): 40.2% | Lym (9 h): 73% | MCH (9 h): 21.2 pg | MCHC (9 h): 33.5% | MCV (9 h): 63.3 fL | Mono (9 h): 7.4% | Neu (9 h): 18.2% | PT (9 h): 12.1 s | Plat (9 h): 114.7 x10_4/uL | RBC (9 h): 635.8 x10_4/ul | Ret (9 h): 9.9% | WBC (9 h): 73.2 x10_2/uL | KIDNEY_L (9 h): 0.9 g | KIDNEY_R (9 h): 0.9 g | KIDNEY_TOTAL (9 h): 1.9 g | LIVER (9 h): 8.4 g | A/G (9 h): 2.8 | ALP (9 h): 845 IU/L | ALT (9 h): 28.8 IU/L | AST (9 h): 61.6 IU/L | BUN (9 h): 11 mg/dL | CRE (9 h): 0.5 mg/dL | Ca (9 h): 10.9 mg/dL | Cl (9 h): 105.8 meq/L | DBIL (9 h): 0.042 mg/dL | GLC (9 h): 192 mg/dL | IP (9 h): 10.7 mg/dL | K (9 h): 4.7 meq/L | LDH (9 h): 102 IU/L | Na (9 h): 136.4 meq/L | PL (9 h): 132.2 mg/dL | RALB (9 h): 4.1 g/dL | TBIL (9 h): 0.4 mg/dL | TC (9 h): 71.6 mg/dL | TG (9 h): 35 mg/dL | TP (9 h): 5.6 g/dL | gamma-GTP (9 h): 1.4 IU/L | TERMINAL_BW (24 h): 217.4 g | APTT (24 h): 17.6 s | Bas (24 h): 0% | Eos (24 h): 1.2% | Fbg (24 h): 207.2 mg/dL | Hb (24 h): 13.2 g/dL | Ht (24 h): 39.2% | Lym (24 h): 73.4% | MCH (24 h): 21.8 pg | MCHC (24 h): 33.6% | MCV (24 h): 64.9 fL | Mono (24 h): 9.2% | Neu (24 h): 16.4% | PT (24 h): 11.4 s | Plat (24 h): 113.3 x10_4/uL | RBC (24 h): 604.6 x10_4/ul | Ret (24 h): 10.6% | WBC (24 h): 106.7 x10_2/uL | KIDNEY_L (24 h): 1 g | KIDNEY_R (24 h): 1 g | KIDNEY_TOTAL (24 h): 1.9 g | LIVER (24 h): 10.5 g | A/G (24 h): 2.6 | ALP (24 h): 909 IU/L | ALT (24 h): 37.8 IU/L | AST (24 h): 64.8 IU/L | BUN (24 h): 21.2 mg/dL | CRE (24 h): 0.5 mg/dL | Ca (24 h): 11 mg/dL | Cl (24 h): 103.6 meq/L | DBIL (24 h): 0 mg/dL | GLC (24 h): 188 mg/dL | IP (24 h): 8.8 mg/dL | K (24 h): 4.9 meq/L | LDH (24 h): 109.8 IU/L | Na (24 h): 138.8 meq/L | PL (24 h): 159.4 mg/dL | RALB (24 h): 4 g/dL | TBIL (24 h): 0.3 mg/dL | TC (24 h): 83.6 mg/dL | TG (24 h): 101.8 mg/dL | TP (24 h): 5.6 g/dL | gamma-GTP (24 h): 1 IU/L
